Where no end group is shown, it is not given here.
How the values were obtained:
[1] = test system: C. caviae infected HeLa cells; experiment: Host cell death (condensed nuclei) in C. caviae infected cells; format: cell-based; conditions: peptide-treated HeLa cells; listed as EQ ID NO:7
Procedure: FIG. 12 depicts (A) low-magnification view of C. trachomatis LGV-L2 infected HeLa monolayers (30 h) treated with SEQ ID NO:7 or SEQ ID NO:11 peptides. (B) The frequency of condensed nuclei in treated cells is dependent on peptide concentration and Chlamydia infection. (C-D) Toxicity of CPAF inhibitors to Chlamydia-infected cells is observed in non-myeloid cells including human embryonic kidney cells HEK293 (C) and mouse embryo fibroblasts (D). […] (F-G) Cell death induced by anti-CPAF peptides requires Caspase-1 activation. HeLa cells infected with C. muridarum were treated with Ac-YVAD-CMK at 2 hpi, SEQ ID NO:7 peptide or SEQ ID NO:11 control peptide at 12 hpi and the percentage of infected cells with condensed nuclei was assessed at 48 hpi (F). Mouse lung fibroblasts (MLF) derived from congenic WT, ICE1^−/− and ASC^−/− animals were infected with C. muridarum and treated with the indicated concentrations of anti peptides 12 hpi. The percentage of infected cells with condensed nuclei was assessed at 48 hpi (G). LGV-L2 inclusions were immunostained with anti-L2 antisera and C. muridarum and C. caviae inclusions were immunostained with an anti-chlamydial LPS monoclonal antibody. Cell death in infected and uninfected cells treated with CPAF inhibitory peptides or control peptides was determined by counting the number of condensed nuclei of ˜1000 cells.

[2] = test system: HeLa cells pre-infected with L2; experiment: Secondary EB infection of pre-infected HeLa cells (Tarp translocation, stability, EB entry); format: cell-based, C. trachomatis
Procedure: FIG. 8 depicts (A-C(I-IV)) Tarp translocated by EBs is a target of CPAF-mediated degradation. Uninfected and HeLa cells pre-infected with L2 for 30 hrs were treated with inhibitory peptides and infected with EBs for 10 min Tarp translocation was indirectly visualized with an anti-phosphotyrosine antibody (A) and quantified by counting 50 separate cells (B). The stability of newly translocated Tarp was assessed by infecting cells as in (A) but with S^35-labeled EBs, followed by sequential immunoprecipitation of Tarp and MOMP and Phosphoimager analysis of precipitated material (C (I-IV)). Tarp is degraded in pre-infected HeLa cells in a CPAF-dependent manner. (D) Effective inhibition of CPAF activity by inhibitory peptide. IC50 values were determined by assessing CPAF cleavage of an Abz-tagged CPAF substrate (SEQ ID NO:9) by HPLC. Assays were performed the presence of increasing amount of inhibitors. […] CPAF cleavage of GST-chlamydial substrates was performed as in FIG. 4B but in the presence of SEQ ID NO:7 and SEQ ID NO:11 peptides (E). For in vivo inhibition effects on Chlamydia (L2), infected HeLa cells were treated with peptides at 12 hpi, and harvested at 30 hpi (F). […] (G and H) CPAF restricts EB entry into preinfected cells. Cells were infected as in (A), except that the secondary infections (30 min) were performed with fluorescently labeled EBs and infected cells were not permeabilized. […] Extracellular bacteria were determined. […] The number of internalized EBs was quantified per cell (H). […]
Next, HeLa cells or inclusion-containing HeLa cells were infected with ^35S-radiolabeled EBs, followed by immunoprecipitation of Tarp at various times after infection to determine the stability of translocated Tarp under these conditions. […] Tarp and MOMP were immunoprecipitated using anti-Tarp and anti-MOMP protein A sepharose beads (available from GE Healthcare), detected in a Typhoon9410 Variable Image Phosphor Imager (available from Amersham Biosciences), and quantified using ImageQuant 5.1TL software (available from GE Healthcare). […]

[3] = test system: Caspase-1; experiment: Caspase-1 activity in infected cells (FLICA, flow cytometry); format: cell-based, human; conditions: fluorescently labeled caspase-1 substrate
Procedure: FIG. 13 depicts (A) that Caspase-1 inhibitors block Chlamydia-mediated cell death. Infected cells were treated with the Caspase-1 inhibitor Ac-YVAD-CMK at 2 hpi, and increasing concentrations of CPAF inhibitor added at 12 hpi. Cells were fixed and the percentage of cells with condensed nuclei determined at 24 hpi. (B) Enhanced Caspase-1 activation in infected cells lacking CPAF activity. Infected cells were labeled with a cell-permeable fluorescent substrate of Caspase-1 and treated with inhibitory peptides, and Caspase-1 activity was monitored by flow cytometry. (C) Caspase-1 and ASC are required for Chlamydia-mediated host cell death. […] Chlamydia replication and generation of IFUs in MLFs was assessed as in FIG. 9. […]
Subsequent experiments tested whether CPAF inhibition led to the onset of apoptosis in infected cells. […] Apoptotic cells were identified with an AnnexinV-FLOUS Staining Kit (available from Roche) and activation of Caspase-1 was determined by labeling active Caspase-1 with a Carboxyfluorescein FLICA Detection Kit (available from Immunochemistry) and analyzed in a FACScanner (available from BD Biosciences). […] Consistent with result, Caspase-3 cleavage, another characteristic of apoptotic cell death, was not detected (FIG. 11C).

Substance: SLFYSPMVPHFWAELRNHYATSGLKRRRRRRRRR-NH2 [SEQ ID NO:7]
- Condensed nuclei / cell death in C. caviae infected cells [1]: do not cause cell death
- Accumulation of Tyr-phosphorylated proteins at EB attachment sites ([2]; pre-infected HeLa cells (30 h), 12 μM peptide): restored the accumulation
- Degradation of Tarp in pulse-chase experiments ([2]; pre-infected HeLa cells, 35S-labeled EBs, 12 μM peptide): blocked the degradation of Tarp
- EB entry into preinfected cells ([2]; secondary infection 30 min, labeled EBs): increased EB entry
- Caspase-1 activity in infected cells [3]: significantly increased
